The test system of series [1] is MCF7. Nature of the series: Inhibition of cancer cell proliferation by delivered drugs. The format is cell-based. To be noted: Homo sapiens.
In series [2] the test system is SKB3-HEK2 xenografted mice. The series can be described thus: Survival after intravenous NANOPEP-9/doxorubicin. To be noted: free Doxo (20 mg/Kg), intravenous every 4 days. The format is in vivo. As to the method:
NANOPEP-9 peptides (VEPEP-9a, b, d, f variants) have been used for the delivery of doxorubicin in vivo. The potential of NANOPEP-9 to deliver doxorubicin in vivo was evaluated on SKB3-HEK2 xenografted mice. Doxorubicin was complexed with VEPEP-9 peptide at a molar ratio of 1/20 with NANOPEP-9a, NANOPEP-9f and NANOPEP-9a-PEG. The treatment was started 10 days after tumor inoculation and with 2 mg/kg and 10 mg/Kg doses of drug and injected every 4 days by systemic Intravenous administration and mice were monitored for survival (FIG. 15).

Series [3] concerns SKB3. The series can be described thus: Inhibition of cancer cell proliferation by delivered drugs. The format is cell-based. The following applies: drug complexed with VEPEP-9f at molar ratio 1/20, read-out: VEPEP-9f IC50.
Series [4] has as its system PC3, A549, or SCK-3-HEK2-xenografted mice. Nature of the series: Tumour growth and cyclin B1 mRNA, siRNA controls. The format is in vivo. The method, then: (§1) For siRNA treatment: Two to three weeks after tumour implant, when tumour size reached about 100 mm^3, animals were treated by intratumoral or intravenous injection, every 3 days, with a solution of 0.1 ml of either free Cyc-B1 siRNA (50 or 100 μg), control siRNA Cyc-B3 or Cyc-B1 siRNA (1, 5, 10 μg) complexed with NANOPEP-9 at a 1/20 molar ratio.
Athymic female nude mice (6-8 weeks of age) were subcutaneously inoculated into the flank with 1×10^6 PC3 (prostate cancer), A549 (lung cancer) or SCK-3-HEK2 (ovarian cancer) cells in 100 μl PBS. Two to three weeks after tumour implant, when tumour size reached about 100 mm^3, animals were treated by intratumoral or intravenous injection, every 3 days, with a solution of 0.1 ml of either free Cyc-B1 siRNA (50 or 100 μg), control siRNA Cyc-B3 or Cyc-B1 siRNA (5, 10 μg) complexed with NANOPEP-9b or NANOPEP-9e particles. The “core” shell of the particles was formed using VEVEP-9b or VEPEP-9e peptide at a molar ratio of 20/1 with a siRNA targeting cycline B1. siRNA stock solutions are in 50 mM Tris, 0.5 mM EDTA buffer or in RNase free water. VEPEP-9 peptides were solubilised in water and stock solution of peptide was sonicated for 10 min in a water bath before complex formation. Then VEPEP-9/siRNA complexes were formed by adding siRNA into the peptide solution and incubating at 37° C. for 20-30 minutes to allow the carrier peptide/siRNA complexes to form. NANOPEP-9 particles contain a VEPEP-9/siRNA “core shell” surrounded by additional VEPEP-9 at a 1/20 molar ratio.
The potential of NANOPEP-9b or NANOPEP-9e to deliver cyclin B1 siRNA in vivo was evaluated on PC3, A549, or SCK-3-HEK2-xenografted mice (FIGS. 13A-13B). The effect of local intratumoral administration of NANOPEP-9/siRNA particles (molar ratio 20/1) on the growth of established subcutaneous tumours was evaluated. At day 50, tumor sizes in the control cohort, injected with PBS increased by about 3 to 5 fold. […] At day 48, it was validated that the Cyc-B1 siRNA mediated inhibition of tumour growth was directly associated with a decrease in the level of cyclin B1 mRNA.

Series [5] concerns cultured cells. Nature of the series: Cell cycle progression / cyclin B1 levels in cultured cells. The format is cell-based. To be noted: VEPEP-9 mediated delivery.
The subject of series [6] is Hela. To be noted: read-out: IC50, block of proliferation, siRNA delivered with VEPEP-9b and VEPEP-9e.
Method: (§3) Adherent HS68 fibroblasts, HeLa, PC3, MCF-7, SCK3-Her2, PBMC cell lines (from American Type Culture Collection (ATCC)) were cultured in Dulbecco's Modified Eagle's Medium supplemented with 2 mM glutamine, 1% antibiotics (streptomycin 10,000 μg/ml, penicillin, 10,000 IU/ml) and 10% (w/v) foetal calf serum (FCS), at 37° C. in a humidified atmosphere containing 5% CO2. […] Stock solutions of VEPEP-9/siRNA particles were prepared by complexing 100 nM siRNA with VEPEP-9 peptides at a molar ratio of 1/20 for 30 min at 37° C. Lower concentrations of VEPEP-9/siRNA (from 20 nM to 0.125 nM) were obtained by serial dilution of the stock complexes in PBS, in order to preserve the same VEPEP-9/siRNA ratio. 150,000 cells seeded in a 35 mm dish the day prior transfection, were grown to 60% confluence and overlaid with 200 μl of preformed complexes, incubated for 3-5 min, then 400 μl of DMEM were added. After 30 min. incubation at 37° C., 1 ml of fresh DMEM containing 16% foetal calf serum (FCS) was added in order to reach a final FCS concentration of 10%, without removing the overlay of VEPEP-9/cargo complexes. Cells were returned to the incubator for 24 hrs. For cdk2 derived peptides, cell proliferation was monitored after 24 and 48 hrs. For siRNA targeting Cyclin B1, Cyclin B1 mRNA level was determined 24 hrs following transduction, using Quantigen (Pommies Inc.). […]
Series [7] concerns HT29 tumor. Nature of the series: Tumour size, intravenous Cyc B1 siRNA in NANOPEP-9. The format is in vivo, mice. To be noted: intravenous every three days, day 50. As to the method:
NANOPEP-9b and NANOPEP-9e particles were used for systemic intravenous administration. Five micrograms (0.25 mg/kg) and 10 μg (0.5 mg/kg) of Cyc B1 siRNA in NANOPEP-9b and NANOPEP-9e particles were injected intravenously every three days into mice bearing xenografted tumors.

For series [8], the system named is Hela, MCF7, HEK-2 and U2OS cells. The series can be described thus: Cell proliferation after VEPEP-9 mediated delivery. Format: cell-based. The method, then:
(§2) Adherent HS68 fibroblasts, HeLa, PC3, MCF-7, SCK3-Her2, PBMC cell lines (from American Type Culture Collection (ATCC)) were cultured in Dulbecco's Modified Eagle's Medium supplemented with 2 mM glutamine, 1% antibiotics (streptomycin 10,000 μg/ml, penicillin, 10,000 IU/ml) and 10% (w/v) foetal calf serum (FCS), at 37° C. in a humidified atmosphere containing 5% CO2. Stock solutions of VEPEP-9/peptide particles were prepared by complexing 1 μM peptide with VEPEP-9 peptides at a molar ratio of 1/20 for 30 min at 37° C. Lower concentrations of VEPEP-9-carrier/peptide (from 500 nM to 1 μM) were obtained by serial dilution of the stock complexes in PBS, in order to preserve the same VEPEP-9-carrier/peptide ratio. Stock solutions of VEPEP-9/siRNA particles were prepared by complexing 100 nM siRNA with VEPEP-9 peptides at a molar ratio of 1/20 for 30 min at 37° C. Lower concentrations of VEPEP-9/siRNA (from 20 nM to 0.125 nM) were obtained by serial dilution of the stock complexes in PBS, in order to preserve the same VEPEP-9/siRNA ratio. […] For cdk2 derived peptides, cell proliferation was monitored after 24 and 48 hrs. For siRNA targeting Cyclin B1, Cyclin B1 mRNA level was determined 24 hrs following transduction, using Quantigen (Pommies Inc.). […]

In series [9] the test system is non-transformed HS68 fibroblasts. Nature of the series: Cell proliferation after VEPEP-9 mediated delivery. The format is cell-based, Human. As to the method: as §2
In series [10] the test system is Hela. To be noted: read-out: IC50, accumulation of cells with a 4 N content (G2 arrest), Cyclin B1 siRNA delivered with VEPEP-9.
In series [11] the test system is MCF7. The following applies: read-out: IC50, block of proliferation, siRNA delivered with VEPEP-9b and VEPEP-9e.
Method: as §3
The test system of series [12] is HEK-2. The series can be described thus: G2 arrest (accumulation of cells with 4 N content). The format is cell-based. To be noted: Cyclin B1 siRNA delivered with VEPEP-9.
The test system of series [13] is MCF7. The following applies: read-out: IC50, accumulation of cells with a 4 N content (G2 arrest), Cyclin B1 siRNA delivered with VEPEP-9.
In series [14] the test system is PC3 tumor. Nature of the series: Tumour size, intravenous Cyc B1 siRNA in NANOPEP-9. The format is in vivo, mice. The following applies: intravenous every three days, day 50. As to the method: as §1
Athymic female nude mice (6-8 weeks of age) were subcutaneously inoculated into the flank with 1×10^6 PC3 (prostate cancer), A549 (lung cancer) or SCK-3-HEK2 (ovarian cancer) cells in 100 μl PBS. Two to three weeks after tumour implant, when tumour size reached about 100 mm^3, animals were treated by intratumoral or intravenous injection, every 3 days, with a solution of 0.1 ml of either free Cyc-B1 siRNA (50 or 100 μg), control siRNA Cyc-B3 or Cyc-B1 siRNA (5, 10 μg) complexed with NANOPEP-9b or NANOPEP-9e particles. The “core” shell of the particles was formed using VEVEP-9b or VEPEP-9e peptide at a molar ratio of 20/1 with a siRNA targeting cycline B1. siRNA stock solutions are in 50 mM Tris, 0.5 mM EDTA buffer or in RNase free water. VEPEP-9 peptides were solubilised in water and stock solution of peptide was sonicated for 10 min in a water bath before complex formation. […]

Where two headings read alike, the source gives them in different places.

In the case of `COc1cccc2c1C(=O)c1c(O)c3c(c(O)c1C2=O)C[C@@](O)(C(=O)CO)C[C@@H]3O[C@H]1C[C@H](N)[C@H](O)[C@H](C)O1` [Doxo, doxorubicin], the IC50 in [1] (drug complexed with VEPEP-9a at molar ratio 1/20, read-out: VEPEP-9a IC50) came to 100 nM; in series [1] (drug complexed with VEPEP-9f at molar ratio 1/20, read-out: VEPEP-9f IC50) it was 700 nM; in series [1] (drug complexed with VEPEP-9d at molar ratio 1/20, read-out: VEPEP-9d IC50), 170 nM; in [3], 600 nM. This compound also registered a survival time in [2] of 16 days.
As for “siRNA: siRNA targeting Cyclin B1; sense 5′GGCGAAGAUCAACAUGGCATT3′, antisense 5′UGCCAUGUUGAUCUUCGCCTT3′ (chemistry not given here)”, the “effect on tumour growth” value in series [4] (100 μg naked siRNA (intratumoral or intravenous) or carrier alone) is given as “no significant effect”. Further, in series [4] (day 48), the “level of cyclin B1 mRNA in tumour” value was “decrease”. In addition, the “concentration at which 4 N accumulation was optimally obtained” value in [5] is given as 20 nM. The IC50 in [6] stood at 3.1 ± 0.2 nM; in [10], 2.4 ± 0.8 nM; in [11], 1.6 ± 0.5 nM; in series [12], 1.2 ± 0.6 nM; in [13] it was 1.9 ± 0.9 nM. The “inhibition (reduction in tumor size)” value in [7] (5 μg siRNA) came out at 35%; in series [7] (10 μg siRNA), 70%; in [14] (5 μg siRNA in NANOPEP-9b and NANOPEP-9e particles) it was 65%; in series [14] (10 μg siRNA in NANOPEP-9b and NANOPEP-9e particles), 90%. Further, the “concentration sufficient to block proliferation” value in series [8] was found to be 20 nM. For the same compound, the reduction of proliferation in [9] is 10%.

(Values after patent US10421784B2, “Cell penetrating peptides for intracellular delivery of molecules” (AADIGEN, LLC, priority 2012, dated 2019).)
